One experiment concerns the target T1, DBH (Bos taurus, UniProt P15101).
T1 sequence (P15101 1-610): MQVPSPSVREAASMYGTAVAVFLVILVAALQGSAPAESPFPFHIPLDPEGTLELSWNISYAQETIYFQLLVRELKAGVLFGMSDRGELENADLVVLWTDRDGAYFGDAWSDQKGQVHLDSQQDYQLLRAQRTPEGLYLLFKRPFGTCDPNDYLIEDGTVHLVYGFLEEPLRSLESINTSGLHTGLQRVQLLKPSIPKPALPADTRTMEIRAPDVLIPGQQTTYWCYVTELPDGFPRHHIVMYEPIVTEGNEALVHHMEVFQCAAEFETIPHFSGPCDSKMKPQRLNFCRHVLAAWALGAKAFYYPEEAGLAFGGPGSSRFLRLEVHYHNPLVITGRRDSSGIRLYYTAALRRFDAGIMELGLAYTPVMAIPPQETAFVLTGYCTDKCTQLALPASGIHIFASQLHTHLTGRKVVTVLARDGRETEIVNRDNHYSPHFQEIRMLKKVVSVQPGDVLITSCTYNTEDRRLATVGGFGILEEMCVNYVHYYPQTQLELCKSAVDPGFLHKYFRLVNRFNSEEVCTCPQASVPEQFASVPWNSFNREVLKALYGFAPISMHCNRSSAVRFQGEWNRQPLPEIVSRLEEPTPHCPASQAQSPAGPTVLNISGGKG
The experiment can be described thus: in vitro DBH inhibition, conversion of tyramine to octopamine. The format is biochemical. The settings on record: octopamine assayed as p-hydroxybenzaldehyde after sodium periodate oxidation, absorbance at 330 nm; read-out: IC50 (molar concentration of compound at which DBH activity was halved). The protocol:
Listed in Table I are Formula (I) compounds that were tested for in vitro DBH inhibition by a standard procedure for assaying conversion of tyramine to octopamine in the presence of DBH. J. J. Pisano, et al., Biochim. Biophys. 43, 566-568 (1960). Octopamine was assayed following sodium periodate oxidation to p-hydroxybenzaldehyde by measuring spectrophotometric absorbance at 330 nm. Inhibition is given in molar concentration of compound at which DBH activity was halved (IC50).

Experiment [1] concerns Spontaneously hypertensive rats. In words: mean arterial blood pressure in spontaneously hypertensive rats. The format is in vivo. The following applies: 50 mg/kg intraperitoneally. The protocol: Spontaneously hypertensive rats were treated with 2-(2-aminoethylthio) 1-(3,5 difluorobenzyl)imidazole at a dose of 50 mg/kg intraperitoneally, and mean arterial blood pressure was monitored for four hours using an indwelling cannula in the femoral artery. […] The maximal blood pressure reduction was approximately 10 mmHg.

For `Cl.Cl.NCCSc1nccn1Cc1cc(F)cc(F)c1` [2-(2-Aminoethylthio)-1-(3,5-difluorobenzyl)imidazole Dihydrochloride], the IC50 on DBH came out at 1800 µM. In experiment [1] (mean arterial blood pressure, femoral artery cannula), the “maximal blood pressure reduction” value is recorded as “approximately 10 mmHg”. Besides, in experiment [1] (monitored for four hours), the “blood pressure reduction compared to vehicle treated controls” value was “significant blood pressure reductions” and the “time of lowest blood pressures after administration” value is 3 to 4 h. Also, the “time to significant blood pressure reductions” value in experiment [1] (vs vehicle treated controls) is at most 30 min.

The values are drawn from patent US4882348A, “2-(aminoalkylthio)imidazoles as dopamine-β-hydroxylase inhibitors” (SmithKline Beckman Corporation, priority 1987, dated 1989).
